Measured values reported in US20260053778A1, “USE OF NOVEL PPAR ACTIVITY MODULATOR FOR PREVENTION, AMELIORATION OR TREATMENT OF DEGENERATIVE BRAIN DISEASES” (POSTECH RESEARCH AND BUSINESS DEVELOPMENT FOUNDATION, priority 2022, published 2026).

How the values were obtained:
[1] = tested on: microglial cells isolated from mice; test: Western blotting of NF-κB, NLRP-3 and ASC in primary microglia; type: cell-based, mouse; details: primary microglia treated with Aβ aggregates or LPS, Western blot
Description: To confirm the mechanism by which DTMB exerts its anti-inflammatory effect, microglial cells isolated from mice were treated with Aβ aggregates or LPS to induce an inflammatory response, and then DTMB was treated to determine the levels of NF-κB, NLRP-3, and ASC proteins by western blotting.
The cells were lysed with lysis buffer containing 50 mM Tris (pH 7.4), 140 mM NaCl, 5 mM EDTA, and protease inhibitor tablets, and then sonicated. The protein concentration of the lysate was determined using Bradford reagent (AMERSCO, MA, USA). Proteins were separated by sodium dodecyl sulfate (SDS) polyacrylamide gel electrophoresis, transferred to nitrocellulose membranes (Pall Corporation, New York, NY, USA), and incubated with blocking buffer (5% nonfat dry milk and 0.1% Tween 20 in TBS) for 30 min. Western blot analysis was performed using primary antibodies against NF-κB, NLRP3, and ASC (Cell Signaling Technology, Danvers, MA, USA). Secondary antibodies from rabbit (Promega), rat, and goat (Bethyl Laboratories) were used, and detection was performed using SUPEX ECL reagent (Neuronex, Korea) and ImageQuant LAS-4000 (GE Healthcare, MA, USA) according to the manufacturer's instructions. Integrated blot densities were quantified using ImageJ.

[2] = biological target: T1, HIS-tagged recombinant PPAR α protein (Homo sapiens, UniProt Q07869); test: CNBr-drug and protein binding experiment, PPARα; details: Western blotting after 24 h incubation
T1 sequence (Q07869 239-466 limits assumed): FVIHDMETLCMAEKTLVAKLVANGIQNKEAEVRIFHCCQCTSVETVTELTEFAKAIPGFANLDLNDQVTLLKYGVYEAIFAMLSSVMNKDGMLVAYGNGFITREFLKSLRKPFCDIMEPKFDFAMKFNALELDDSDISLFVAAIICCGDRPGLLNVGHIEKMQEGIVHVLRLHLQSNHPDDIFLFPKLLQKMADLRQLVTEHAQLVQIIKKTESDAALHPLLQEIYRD
Description: (§1) Since the computer prediction program predicted that DTMB binds to PPAR transcription factors, CNBr-drug and protein binding experiments were conducted to confirm whether DTMB actually binds to PPAR. To determine the actual degree of drug-protein binding, the reaction of the protein of the PPAR-α, β/δ, γ ligand-binding portion with the DTMB drug-bound CNBr beads was confirmed through Western blotting.
(§2) Specifically, CNBr Sepharose 4B beads were prepared and activated according to the instructions. 100 mg of CNBr-activated Sepharose 4B beads were incubated with drugs or DMSO at 4° C. for 18 h. The drug-bound beads reacted with HIS-tagged recombinant PPAR α, β/δ, and γ proteins. After 24 h of incubation, Western blotting experiments were performed to confirm whether the recombinant proteins bound to the drug-bound beads.

PPARγ = biological target: T2, PPARγ (Homo sapiens, UniProt P37231); test: GAL4-transactivation assay in HEK293A cells, PPARγ; type: cell-based; details: GAL4 reporter, 24 h, compared with rosiglitazone
T2 construct: expressed in transfected cells; host or cells: HEK293A
T2 sequence (P37231 1-505): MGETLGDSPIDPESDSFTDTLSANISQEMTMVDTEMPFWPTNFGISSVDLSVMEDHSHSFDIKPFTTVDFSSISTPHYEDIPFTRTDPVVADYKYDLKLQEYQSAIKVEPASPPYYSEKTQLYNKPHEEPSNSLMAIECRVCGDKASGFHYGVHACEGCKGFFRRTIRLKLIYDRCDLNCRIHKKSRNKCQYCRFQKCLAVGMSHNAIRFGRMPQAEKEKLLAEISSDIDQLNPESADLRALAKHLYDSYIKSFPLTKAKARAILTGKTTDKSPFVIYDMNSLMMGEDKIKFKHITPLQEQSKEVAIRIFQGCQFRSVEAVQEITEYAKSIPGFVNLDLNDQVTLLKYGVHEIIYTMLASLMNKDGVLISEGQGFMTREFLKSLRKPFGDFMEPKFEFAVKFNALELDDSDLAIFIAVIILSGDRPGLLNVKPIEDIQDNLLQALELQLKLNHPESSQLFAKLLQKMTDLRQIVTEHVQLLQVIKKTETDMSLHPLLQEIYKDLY
Description: A GAL4-transactivation assay experiment was performed to determine whether the drug was bound to the PPAR ligand binding site. HEK293A cells were transfected with GAL4-reporter plasmid and pGL4.74 (Promega, Madison, WI, USA) as an internal standard via electroporation using the Neon Transfection System (Invitrogen, Carlsbad, CA, USA). All vectors were kindly provided by Professor Kanno Yuichiro, Toho University, Japan. After overnight culture, cells were treated with DTMB and each positive control compound for 24 h. Cells were then harvested, resuspended in luciferase lysis buffer (Promega), and incubated on ice for 10 min. Cell debris was removed by centrifugation at 20,000×g, 4° C. for 10 min, and the supernatant was used for the luciferase assay. Luciferase activity was measured using the Dual Luciferase Reporter Assay System (Promega) according to the manufacturer's instructions. In the measurement experiment, firefly luciferase activity was normalized to Renilla luciferase activity. To investigate the concentration-dependent effect of DTMB drug, EC50 values were measured by treating various concentrations of DTMB.

[3] = biological target: T3, HIS-tagged recombinant PPAR γ protein (Homo sapiens, UniProt P37231); test: CNBr-drug and protein binding experiment, PPARγ; details: Western blotting after 24 h incubation
T3 sequence (P37231 238-503 limits assumed): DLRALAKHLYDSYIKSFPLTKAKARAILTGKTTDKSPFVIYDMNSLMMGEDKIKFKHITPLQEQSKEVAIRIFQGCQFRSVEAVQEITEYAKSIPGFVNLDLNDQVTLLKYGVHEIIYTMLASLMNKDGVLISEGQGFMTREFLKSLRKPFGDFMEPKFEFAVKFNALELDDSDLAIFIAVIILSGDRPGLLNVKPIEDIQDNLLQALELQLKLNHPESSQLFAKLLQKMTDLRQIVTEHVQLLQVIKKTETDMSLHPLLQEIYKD
Description: as §1, §2

primary microglia = test: Quantitative PCR of inflammation genes in primary microglia; type: cell-based, mouse; details: qPCR
Excerpt: In addition, the gene expression levels of Il-6. Il-1 #, and iNOS, which are NF-κB target genes related to chronic inflammation, and Arg-1, an anti-inflammatory marker, were confirmed by quantitative PCR (qPCR) analysis in primary microglia.
Total RNA was isolated using TRI reagent (Molecular Research Center, Cincinnati, OH, USA). RNA was reverse transcribed using the ImProm-II Reverse Transcription System (Promega) according to the manufacturer's instructions. For detection and quantification, the StepOnePlus Real-Time PCR System (Applied Biosystems, Foster City, CA, USA) was used with FastStart Universal SYBR Green Master (Roche, Basel, Switzerland). Real-time qPCR data were analyzed using the comparative CT method.

COc1ccc(-c2cc(=O)oc3c(C)c(OC(=O)[C@H](Cc4c[nH]c5ccccc45)NC(=O)OC(C)(C)C)ccc23)cc1 [DTMB, [4-(4-Methoxyphenyl)-8-methyl-2-oxochromen-7-yl](2S)-3-(1H-indol-3-yl)-2-[(2-methylpropan-2-yl)oxycarbonylamino]propanoate]
NF-κB protein level [1]: reducing NF-κB
NLRP3 protein level [1]: reduced
Binding of PPARα ligand-binding protein to drug-bound CNBr beads [2]: binds to all subtypes of PPAR
PPARγ activation versus positive control (PPARγ): activated at a slightly higher concentration than GW501516 and rosiglitazone, respectively
Binding of PPARγ ligand-binding protein to drug-bound CNBr beads [3]: binds to all subtypes of PPAR
Expression of Il-1β (primary microglia): decreased
Expression of Il-6 (primary microglia): decreased
Expression of anti-inflammatory marker Arg-1 (primary microglia): induced
Expression of iNOS (primary microglia): decreased
